Where a name gives a salt, the structure may show the parent alone.

The assay concerns the target T1, human α-thrombin (Homo sapiens, UniProt P00734).
T1 construct: Purified human α-thrombin; purchased Enzyme Research Laboratories (South Bend, Ind.)
Kind of assay: In vitro inhibition of purified thrombin (p-nitroanilide substrate hydrolysis, Ki determination). The format is biochemical. The following applies: purified human α-thrombin 0.5 nM; substrate N-succinyl-Ala-Ala-Pro-Arg-p-nitroanilide 32 μM; 37° C.; pH 7.5. The source says: Reagents: All buffer salts were obtained from Sigma Chemical Company (St. Louis, Mo.), and were of the highest purity available. The enzyme substrates, N—N-benzoyl-Phe-Val-Arg-p-nitroanilide (Sigma B7632), N-benzoyl-Ile-Glu-Gly-Arg-p-nitroanilide hydrochloride (Sigma B2291), N-p-Tosyl-Gly-Pro-Lys-p-nitroanilide (Sigma T6140), N-succinyl-Ala-Ala-Pro-Phe-p-nitroanilide (Sigma S7388) and N-CBZ-Val-Gly-Arg-p-nitroanilide (Sigma C7271) were obtained from Sigma. N-succinyl-Ala-Ala-Pro-Arg-p-nitroanilide (BACHEM L-1720) and N-succinyl-Ala-Ala-Pro-Val-p-nitroanilide (BACHEM L-1770) were obtained from BACHEM (King of Prussia, Pa.).
Human α-thrombin, human factor Xa and human plasmin were obtained from Enzyme Research Laboratories (South Bend, Ind.). Bovine α-chymotrypsin (Sigma C4129), bovine trypsin (Sigma T8642) and human kidney cell urokinase (Sigma U5004) were obtained from Sigma. Human leukocyte elastase was obtained from Elastin Products (Pacific, Mo.).
Ki Determinations: All assays are based on the ability of the test compound to inhibit the enzyme catalyzed hydrolysis of a peptide p-nitroanilide substrate. […] In general, substrate concentrations are lower than the experimentally determined value for Km. […]
In a typical Ki determination, into each well of a 96 well plate is pipetted 280 μL of substrate solution, 10 μL of test compound solution, and the plate allowed to thermally equilibrate at 37° C. in a Molecular Devices plate reader for >15 minutes. Reactions were initiated by the addition of a 10 μL aliquot of enzyme and the absorbance increase at 405 nm is recorded for 15 minutes. […] The ratio of the velocity (rate of change in absorbance as a function of time) for a sample containing no test compound is divided by the velocity of a sample containing test compound, and is plotted as a function of test compound concentration. The data are fit to a linear regression, and the value of the slope of the line calculated. The inverse of the slope is the experimentally determined Ki value. […]
A word on the Ki: it is the equilibrium dissociation constant of an inhibitor or competing ligand from its target. Read a low Ki as a stronger hold on the target. The compound `Cc1cc(OCC2CCN(C(=N)N)OC2)cc(OS(=O)(=O)c2ccccc2S(C)(=O)=O)c1` (stereo not drawn) [Example 1, 3-[(2-Amidino(1,2-oxazaperhydroin-5-yl))methoxy]-5-methylphenyl 2-(methylsulfonyl)benzenesulfonate Trifluoroacetate] gave a Ki of 7 nM.

For `CS(=O)(=O)c1ccccc1S(=O)(=O)Oc1cc(Cl)cc(OCC2CCN(C(=N)N)OC2)c1` (stereo not drawn) [Example 2, 3-[(2-Amidino(1,2-oxazaperhydroin-5-yl))methoxy]-5-chlorophenyl 2-(methylsulfonyl)benzenesulfonate trifluoroacetate], the affinity corresponds to a Ki of 13 nM.

`C=CCN(C(=O)c1cc(Cl)cc(OCC2CCN(C(=N)N)OC2)c1)C1CCCC1` (stereo not drawn) [Example 3, 5-{[5-Chloro-3-(N-cyclopentyl-N-prop-2-enylcarbamoyl)phenoxy]methyl}-1,2-oxazaperhydroine-2-carboxamidine trifluoroacetate] gave a Ki of 8 nM.

The values are drawn from patent US6635637B2, “Cyclic oxyguanidine protease inhibitors” (Dimensional Pharmaceuticals, Inc., priority 2000, dated 2003).
